Here are results for four molecules from ChEMBL document CHEMBL1781983, “Hop (Humulus lupulus)-derived bitter acids as multipotent bioactive compounds” (J Nat Prod, 2009).

By IC50 is commonly meant the concentration needed to halve the response being measured. In general, inhibition refers to the drop in the measured response relative to a control, in per cent.

The subject of test [1] is Mus musculus. The test is described as follows: Antiinflammatory activity in mouse assessed as inhibition of TPA-induced ear edema measured per ear. In kind it is functional.
The test system of test [2] is Mus musculus. In words: Antiangiogenic activity in mouse at 0.01%, po for 21 days. In kind it is functional.
Test [3] relates to Radical scavenging activity. In words: Antioxidant activity assessed as DPPH radical scavenging activity. The format is functional. On the technique in general: Loss of DPPH colour is used to gauge radical scavenging.
The nature of test [4]: Antioxidant activity assessed as inhibition of lipid peroxidation. The format is functional.
In the next test the test system is Chorioallantoic membrane. In words: Inhibition of angiogenesis in chick embryo chorioallantoic membranes. In kind it is functional. To be noted: Gallus gallus.
The nature of test [5]: Antiangiogenic activity against bFGF-indeced mouse KOP2.16 cells assessed as reduction in cell growth at 10 uM. In kind it is functional.
For a further test, the system named is Osteoclast. In words: Inhibition of osteoporotic lesion formation in ICR mouse osteoclasts bone cells using ivory pieces after 2 days by pit formation assay. In kind it is functional, cell-based. To be noted: 48 h.
Test [6] can be described thus: Antioxidant activity in human RBC assessed as inhibition of hydrogen peroxide-induced hemolysis after 3 hrs. The format is functional, cell-based. The conditions noted are these: erythrocyte.
The next test has as its system U-937. The test is described as follows: Antiproliferative activity against human U937 cells.
For test [7], the target named is T1, Prostaglandin G/H synthase 2 (Mus musculus, UniProt Q05769).
T1 sequence (Q05769 whole entry): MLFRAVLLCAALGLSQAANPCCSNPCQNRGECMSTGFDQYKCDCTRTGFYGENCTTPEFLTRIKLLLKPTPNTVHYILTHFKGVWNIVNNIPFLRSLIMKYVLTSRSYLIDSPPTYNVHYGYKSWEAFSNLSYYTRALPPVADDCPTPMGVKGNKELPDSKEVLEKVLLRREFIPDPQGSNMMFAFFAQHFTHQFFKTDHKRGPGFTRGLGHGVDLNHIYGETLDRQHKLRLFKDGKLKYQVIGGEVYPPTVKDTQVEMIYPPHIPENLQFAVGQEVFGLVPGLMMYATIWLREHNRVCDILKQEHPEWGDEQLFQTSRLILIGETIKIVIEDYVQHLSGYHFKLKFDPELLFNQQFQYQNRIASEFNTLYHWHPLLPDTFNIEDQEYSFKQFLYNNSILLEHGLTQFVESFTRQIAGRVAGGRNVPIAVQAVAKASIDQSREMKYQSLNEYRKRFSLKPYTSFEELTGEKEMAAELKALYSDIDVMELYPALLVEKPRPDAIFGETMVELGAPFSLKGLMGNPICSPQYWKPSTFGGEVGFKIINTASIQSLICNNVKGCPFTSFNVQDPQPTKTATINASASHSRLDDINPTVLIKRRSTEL
In words: Inhibition of COX2-mediated PGE2 production in TNF-alpha-induced mouse MC3T3-E1 cells.

For `COc1ccc2c(c1)c(CC(=O)O)c(C)n2C(=O)c1ccc(Cl)cc1` [INDOMETHACIN], the ID50 with Mus musculus [1] amounted to 0.3 mg.

Consider `CC(C)=CCC1=C(O)C(C(=O)CC(C)C)=C(O)C(CC=C(C)C)(CC=C(C)C)C1=O` [LUPULONE], for which the “inhibition (INH)” value in the test with Mus musculus [2] turned out to be 50%. Moreover, the IC50 in test [3] worked out at 25 µM; in [4], 39 µM.

For the molecule `C[C@]12CCC(=O)C=C1CC[C@@H]1[C@@H]2[C@@H](O)C[C@@]2(C)[C@H]1CC[C@]2(O)C(=O)CO` [HYDROCORTISONE], the ID50 with Mus musculus [1] is recorded as 0.03 mg.

On to `CC(C)=CCC1C(=O)C(C(=O)CC(C)C)=C(O)C(O)(CC=C(C)C)C1=O` (centres undefined) [HUMULONE], for which the ED50 in the test on Chorioallantoic membrane is 1.5 µg. Also, the inhibition at 10 µM in test [5] amounted to 20%. Moreover, the ID50 with Mus musculus [1] came out at 0.2 mg. Besides, the 50% inhibitory concentration (IC50) stood at 0.0059 µM in the test with Osteoclast; 28 µM in [6]; 32 µM in [3]; 7.9 µM in [4]; 3.4 µM in the test on U-937; 0.03 µM in test [7].
